In patent US10004701B2, “Methods and compositions for treating infection” (UNIVERSITY OF ROCHESTER, priority 2012, dated 2018):
Counter-ions that a name gives are not always drawn. Like-named read-outs stand apart in the source and are kept apart here.

How the values were obtained:
Experiment in all cases: AK assay 384-well format, Prestwick library screening
P. aeruginosa = format: cell-based, Pseudomonas aeruginosa; conditions: Pseudomonas aeruginosa, 3 h
E. cloacae = format: cell-based, Enterobacter cloacae; conditions: Enterobacter cloacae, 3 h
E. faecium = format: cell-based, Enterococcus faecium; conditions: Enterococcus faecium, 3 h
E. coli = format: cell-based, Escherichia coli; conditions: Escherichia coli, 3 h
[1] = test system: S. aureus strain USA300-0114; format: cell-based, Staphylococcus aureus; conditions: Staphylococcus aureus, USA300, 3 h
K. pneumoniae = format: cell-based, Klebsiella pneumoniae; conditions: Klebsiella pneumoniae, 3 h
[2] = test system: A. baumannii strain 98-37-09; format: cell-based, Acinetobacter baumannii; conditions: Acinetobacter baumannii, 983709, 3 h
[3] = 50 μM final drug concentration, cutoff for positive-scoring molecules 3-fold increase, read-out: AK-based Prestwick Library Screening Results, P. aeruginosa (fold increase in extracellular AK activity)
[4] = 50 μM final drug concentration, cutoff for positive-scoring molecules 3-fold increase, read-out: AK-based Prestwick Library Screening Results, E. cloacae (fold increase in extracellular AK activity)
[5] = 50 μM final drug concentration, cutoff for positive-scoring molecules 3-fold increase, read-out: AK-based Prestwick Library Screening Results, E. faecium (fold increase in extracellular AK activity)
[6] = 50 μM final drug concentration, cutoff for positive-scoring molecules 3-fold increase, read-out: AK-based Prestwick Library Screening Results, E. coli (fold increase in extracellular AK activity)
[7] = 50 μM final drug concentration, cutoff for positive-scoring molecules 3-fold increase, read-out: AK-based Prestwick Library Screening Results, S. aureus (fold increase in extracellular AK activity)
[8] = 50 μM final drug concentration, cutoff for positive-scoring molecules 3-fold increase, read-out: AK-based Prestwick Library Screening Results, K. pneumoniae (fold increase in extracellular AK activity)
[9] = 50 μM final drug concentration, cutoff for positive-scoring molecules 3-fold increase, read-out: AK-based Prestwick Library Screening Results, A. baumannii (fold increase in extracellular AK activity)
[10] = 50 μM final drug concentration, 384-well format, cutoff for positive-scoring molecules 3-fold increase, read-out: AK-based Prestwick Library Screening Results, P. aeruginosa (increase in extracellular AK activity)
[11] = 50 μM final drug concentration, 384-well format, cutoff for positive-scoring molecules 3-fold increase, read-out: AK-based Prestwick Library Screening Results, E. cloacae (increase in extracellular AK activity)
[12] = 50 μM final drug concentration, 384-well format, cutoff for positive-scoring molecules 3-fold increase, read-out: AK-based Prestwick Library Screening Results, E. faecium (increase in extracellular AK activity)
[13] = 50 μM final drug concentration, 384-well format, cutoff for positive-scoring molecules 3-fold increase, read-out: AK-based Prestwick Library Screening Results, E. coli (increase in extracellular AK activity)
[14] = 50 μM final drug concentration, 384-well format, cutoff for positive-scoring molecules 3-fold increase, read-out: AK-based Prestwick Library Screening Results, S. aureus (increase in extracellular AK activity)
[15] = 50 μM final drug concentration, 384-well format, cutoff for positive-scoring molecules 3-fold increase, read-out: AK-based Prestwick Library Screening Results, K. pneumoniae (increase in extracellular AK activity)
[16] = 50 μM final drug concentration, 384-well format, cutoff for positive-scoring molecules 3-fold increase, read-out: AK-based Prestwick Library Screening Results, A. baumannii (increase in extracellular AK activity)
[17] = read-out: AK-based Prestwick Library Screening Results, P. aeruginosa (fold increase in extracellular AK activity)
[18] = read-out: AK-based Prestwick Library Screening Results, E. cloacae (fold increase in extracellular AK activity)
[19] = read-out: AK-based Prestwick Library Screening Results, E. faecium (fold increase in extracellular AK activity)
[20] = read-out: AK-based Prestwick Library Screening Results, E. coli (fold increase in extracellular AK activity)
[21] = read-out: AK-based Prestwick Library Screening Results, S. aureus (fold increase in extracellular AK activity)
[22] = read-out: AK-based Prestwick Library Screening Results, K. pneumoniae (fold increase in extracellular AK activity)
[23] = read-out: AK-based Prestwick Library Screening Results, A. baumannii (fold increase in extracellular AK activity)
[24] = planktonic P. aeruginosa, 50 μM final drug concentration, 384-well, cutoff for positive-scoring molecules 3-fold increase, read-out: AK-based Prestwick Library Screening Results: P. aeruginosa (increase in extracellular AK activity)
[25] = planktonic E. cloacae, 50 μM final drug concentration, 384-well, cutoff for positive-scoring molecules 3-fold increase, read-out: AK-based Prestwick Library Screening Results: E. cloacae (increase in extracellular AK activity)
[26] = planktonic E. faecium, 50 μM final drug concentration, 384-well, cutoff for positive-scoring molecules 3-fold increase, read-out: AK-based Prestwick Library Screening Results: E. faecium (increase in extracellular AK activity)
[27] = planktonic E. coli, 50 μM final drug concentration, 384-well, cutoff for positive-scoring molecules 3-fold increase, read-out: AK-based Prestwick Library Screening Results: E. coli (increase in extracellular AK activity)
[28] = planktonic S. aureus, 50 μM final drug concentration, 384-well, cutoff for positive-scoring molecules 3-fold increase, read-out: AK-based Prestwick Library Screening Results: S. aureus (increase in extracellular AK activity)
[29] = planktonic K. pneumoniae, 50 μM final drug concentration, 384-well, cutoff for positive-scoring molecules 3-fold increase, read-out: AK-based Prestwick Library Screening Results: K. pneumoniae (increase in extracellular AK activity)
[30] = planktonic A. baumannii, 50 μM final drug concentration, 384-well, cutoff for positive-scoring molecules 3-fold increase, read-out: AK-based Prestwick Library Screening Results: A. baumannii (increase in extracellular AK activity)
[31] = planktonic P. aeruginosa, 50 μM final drug concentration, positive cutoff 3-fold increase, read-out: AK-based Prestwick library screening result, P. aeruginosa (fold increase in extracellular AK activity)
[32] = planktonic E. cloacae, 50 μM final drug concentration, positive cutoff 3-fold increase, read-out: AK-based Prestwick library screening result, E. cloacae (fold increase in extracellular AK activity)
[33] = planktonic E. faecium, 50 μM final drug concentration, positive cutoff 3-fold increase, read-out: AK-based Prestwick library screening result, E. faecium (fold increase in extracellular AK activity)
[34] = planktonic E. coli, 50 μM final drug concentration, positive cutoff 3-fold increase, read-out: AK-based Prestwick library screening result, E. coli (fold increase in extracellular AK activity)
[35] = planktonic S. aureus, 50 μM final drug concentration, positive cutoff 3-fold increase, read-out: AK-based Prestwick library screening result, S. aureus (fold increase in extracellular AK activity)
[36] = planktonic K. pneumoniae, 50 μM final drug concentration, positive cutoff 3-fold increase, read-out: AK-based Prestwick library screening result, K. pneumoniae (fold increase in extracellular AK activity)
[37] = planktonic A. baumannii, 50 μM final drug concentration, positive cutoff 3-fold increase, read-out: AK-based Prestwick library screening result, A. baumannii (fold increase in extracellular AK activity)

COc1ccccc1N1CCN(CC(O)COc2cccc3ccccc23)CC1 (stereo not shown) [Naftopidil dihydrochloride]
fold induction at 50 µM (P. aeruginosa; [3]): 0.7 | fold induction at 50 µM (E. cloacae; [4]): 0.9 | fold induction at 50 µM (E. faecium; [5]): 0.8 | fold induction at 50 µM (E. coli; [6]): 0.9 | fold induction at 50 µM [1, 7]: 0.5 | fold induction at 50 µM (K. pneumoniae; [8]): 0.6 | fold induction at 50 µM [2, 9]: 0.7

Nc1ccc(S(=O)(=O)Nc2ncccn2)cc1 [Sulfadiazine]
fold induction at 50 µM (P. aeruginosa; [10]): 0.8 | fold induction at 50 µM (E. cloacae; [11]): 0.9 | fold induction at 50 µM (E. faecium; [12]): 0.8 | fold induction at 50 µM (E. coli; [13]): 1 | fold induction at 50 µM [1, 14]: 0.7 | fold induction at 50 µM (K. pneumoniae; [15]): 0.7 | fold induction at 50 µM [2, 16]: 1.2

C[C@]12CC[C@H]3C(=CCc4cc(O)ccc43)[C@@H]1CCC2=O [Equilin]
fold induction at 50 µM (P. aeruginosa; [17]): 1.1 | fold induction at 50 µM (E. cloacae; [18]): 1.4 | fold induction at 50 µM (E. faecium; [19]): 1 | fold induction at 50 µM (E. coli; [20]): 1.3 | fold induction at 50 µM [1, 21]: 3.9 | fold induction at 50 µM (K. pneumoniae; [22]): 0.9 | fold induction at 50 µM [2, 23]: 1

CN(C)CCOC(c1ccccc1)c1ccccc1 [Diphenhydramine hydrochloride]
fold induction at 50 µM (P. aeruginosa; [24]): 1 | fold induction at 50 µM (E. cloacae; [25]): 1.4 | fold induction at 50 µM (E. faecium; [26]): 0.9 | fold induction at 50 µM (E. coli; [27]): 1.3 | fold induction at 50 µM [1, 28]: 1.1 | fold induction at 50 µM (K. pneumoniae; [29]): 1 | fold induction at 50 µM [2, 30]: 1.3

Cc1oncc1C(=O)Nc1ccc(C(F)(F)F)cc1 [Leflunomide]
fold induction at 50 µM (P. aeruginosa; [3]): 0.8 | fold induction at 50 µM (E. cloacae; [4]): 1.5 | fold induction at 50 µM (E. faecium; [5]): 0.7 | fold induction at 50 µM (E. coli; [6]): 0.8 | fold induction at 50 µM [1, 7]: 0.6 | fold induction at 50 µM (K. pneumoniae; [8]): 0.6 | fold induction at 50 µM [2, 9]: 0.8

CC[N+](C)(C)c1cccc(O)c1 [Edrophonium chloride]
fold induction at 50 µM (P. aeruginosa; 50 μM final drug concentration, 384-well format, […], read-out: AK-based Prestwick Library Screening Results, P. aeruginosa (increase in extracellular AK activity)): 0.4 | fold induction at 50 µM (E. cloacae; 50 μM final drug concentration, 384-well format, […], read-out: AK-based Prestwick Library Screening Results, E. cloacae (increase in extracellular AK activity)): 0.3 | fold induction at 50 µM (E. faecium; 50 μM final drug concentration, 384-well format, […], read-out: AK-based Prestwick Library Screening Results, E. faecium (increase in extracellular AK activity)): 0.8 | fold induction at 50 µM (E. coli; 50 μM final drug concentration, 384-well format, […], read-out: AK-based Prestwick Library Screening Results, E. coli (increase in extracellular AK activity)): 0.4 | fold induction at 50 µM ([1]; 50 μM final drug concentration, 384-well format, […], read-out: AK-based Prestwick Library Screening Results, S. aureus (increase in extracellular AK activity)): 0.4 | fold induction at 50 µM (K. pneumoniae; 50 μM final drug concentration, 384-well format, […], read-out: AK-based Prestwick Library Screening Results, K. pneumoniae (increase in extracellular AK activity)): 0.5 | fold induction at 50 µM ([2]; 50 μM final drug concentration, 384-well format, […], read-out: AK-based Prestwick Library Screening Results, A. baumannii (increase in extracellular AK activity)): 0.4

C=C1C[C@]23C[C@@]1(O)CC[C@H]2[C@@]12C=C[C@H](O)[C@@](C)(C(=O)O1)[C@H]2[C@@H]3C(=O)O [Gibberellic acid]
fold induction at 50 µM (P. aeruginosa; [3]): 0.4 | fold induction at 50 µM (E. cloacae; [4]): 0.4 | fold induction at 50 µM (E. faecium; [5]): 0.8 | fold induction at 50 µM (E. coli; [6]): 0.5 | fold induction at 50 µM [1, 7]: 0.4 | fold induction at 50 µM (K. pneumoniae; [8]): 0.5 | fold induction at 50 µM [2, 9]: 0.4

CC(C)(C)NCC(O)c1ccc(O)c(CO)c1 (stereo not shown) [Salbutamol]
fold induction at 50 µM (P. aeruginosa; [10]): 0.8 | fold induction at 50 µM (E. cloacae; [11]): 1.4 | fold induction at 50 µM (E. faecium; [12]): 1 | fold induction at 50 µM (E. coli; [13]): 0.9 | fold induction at 50 µM [1, 14]: 0.8 | fold induction at 50 µM (K. pneumoniae; [15]): 0.7 | fold induction at 50 µM [2, 16]: 0.9

CN(C)CCOC(=O)C(c1ccccc1)C1(O)CCCC1 (stereo not shown) [Cyclopentolate hydrochloride]
fold induction at 50 µM (P. aeruginosa; [31]): 1.1 | fold induction at 50 µM (E. cloacae; [32]): 1.3 | fold induction at 50 µM (E. faecium; [33]): 1 | fold induction at 50 µM (E. coli; [34]): 1.2 | fold induction at 50 µM [1, 35]: 1.1 | fold induction at 50 µM (K. pneumoniae; [36]): 1 | fold induction at 50 µM [2, 37]: 1

O=C(c1ccc(OCCN2CCCCC2)cc1)c1c(-c2ccc(O)cc2)sc2cc(O)ccc12 [Raloxifene hydrochloride]
fold induction at 50 µM (P. aeruginosa; [3]): 1.2 | fold induction at 50 µM (E. cloacae; [4]): 1.3 | fold induction at 50 µM (E. faecium; [5]): 0.9 | fold induction at 50 µM (E. coli; 50 μM final drug concentration, […], read-out: AK-based Prestwick Library Screening Results, E. coli (fold increase in extracellular AK activity)): 1.5 | fold induction at 50 µM [1, 7]: 1.2 | fold induction at 50 µM (K. pneumoniae; [8]): 1.1 | fold induction at 50 µM [2, 9]: 1.5

COc1ccc2c(c1)C(=O)N(CCc1ccc(S(=O)(=O)NC(=O)NC3CCCCC3)cc1)C(=O)C2(C)C [Gliquidone]
fold induction at 50 µM (P. aeruginosa; [31]): 0.8 | fold induction at 50 µM (E. cloacae; [32]): 1.1 | fold induction at 50 µM (E. faecium; [33]): 0.9 | fold induction at 50 µM (E. coli; [34]): 0.8 | fold induction at 50 µM [1, 35]: 0.5 | fold induction at 50 µM (K. pneumoniae; [36]): 0.7 | fold induction at 50 µM [2, 37]: 0.7

COc1ccc2c(c1)c(CC(=O)OCC(=O)O)c(C)n2C(=O)c1ccc(Cl)cc1 [Acemetacin]
fold induction at 50 µM (P. aeruginosa; [24]): 1.1 | fold induction at 50 µM (E. cloacae; [25]): 1.3 | fold induction at 50 µM (E. faecium; [26]): 1 | fold induction at 50 µM (E. coli; [27]): 1.2 | fold induction at 50 µM [1, 28]: 1.1 | fold induction at 50 µM (K. pneumoniae; [29]): 0.9 | fold induction at 50 µM [2, 30]: 1.1

C[N+]12CCC(CC1)C(OC(=O)C(O)(c1ccccc1)c1ccccc1)C2 (stereo not shown) [Clidinium bromide]
fold induction at 50 µM (P. aeruginosa; [17]): 1.1 | fold induction at 50 µM (E. cloacae; [18]): 1.3 | fold induction at 50 µM (E. faecium; [19]): 0.9 | fold induction at 50 µM (E. coli; [20]): 1 | fold induction at 50 µM [1, 21]: 0.9 | fold induction at 50 µM (K. pneumoniae; [22]): 0.8 | fold induction at 50 µM [2, 23]: 1.1
